{"source": "patent US20200061076A1", "about": "“METHODS OF TREATING LEUKODYSTROPHIES” (Ramot at Tel-Aviv University Ltd., priority 2017, published 2020)", "key": {"Mut astrocytes": {"tested_on": "Mut astrocytes", "assay": "Cell survival assay, Crystal violet staining, Mut astrocytes", "assay_type": "cell-based, mouse", "settings": "24 hours, untreated cells set to 100%", "procedure": "Cells were seeded on 96-wells plate at a density of 5000 cells per well. Astrocytes were seeded following coating with 0.001% PDL."}, "Mut MEFs [1]": {"tested_on": "Mut MEFs", "assay": "JC1 staining of intact and damaged mitochondria (mitochondrial membrane potential)", "assay_type": "cell-based, mouse", "settings": "Mut MEFs"}, "Sig-1R": {"target": "Sig-1R (Homo sapiens, UniProt Q99720)", "sequence (Q99720 whole entry)": "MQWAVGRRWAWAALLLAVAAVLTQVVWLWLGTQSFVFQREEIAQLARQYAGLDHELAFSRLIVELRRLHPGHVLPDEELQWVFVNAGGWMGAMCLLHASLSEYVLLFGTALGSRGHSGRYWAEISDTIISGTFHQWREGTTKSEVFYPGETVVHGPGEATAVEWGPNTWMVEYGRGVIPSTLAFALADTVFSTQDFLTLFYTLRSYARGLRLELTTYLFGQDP", "assay": "Competitive displacement binding assay with [3H]haloperidol (Eurofins)", "settings": "10 μM compound", "procedure": "Following, the direct binding of p8G5 to Sig-1R, was tested in-vitro by Eurofins labs (www(dot)cerep(dot)fr/cerep/users/pages/catalog/Affiche_CondExp_Test(dot)asp?test=889)."}, "Mut MEFs [2]": {"tested_on": "Mut MEFs", "assay": "mtDNA quantification (qPCR of mitochondrial 12S rRNA and nuclear 18S rRNA genes), MEFs", "assay_type": "cell-based, mouse", "settings": "0.1 μM-1 μM, 6 hours incubation (FIG. 2)", "procedure": "DNA extracted from WT and Mut MEFs that were treated or not for 6 hours with 0.1 μM, 1 μM or 10 μM of p8G5 (blue), Pre084 (known SIG-1R agonist, purple), pridopidine (known SIG-1R agonists, green) or NE-100 (known SIG-1R antagonist, yellow) was subjected to qPCR analysis of mitochondrial 12S rRNA and nuclear 18S rRNA genes."}, "Mut MEFs [3]": {"tested_on": "Mut MEFs", "assay": "TMRE staining, flow cytometry", "assay_type": "cell-based, mouse", "settings": "1 μM, 6 hours (FIGS. 5A-B)", "procedure": "Mut MEFs were treated or untreated with the indicated concentrations of the indicated Sig-1R binders for 6 hours, stained by TMRE for 30 minutes and analyzed by flow cytometry. Shown are flow cytometry histograms and bar graphs representing % mean TMRE fluorescence intensity relative to non-treated WT cells of a representative experiment.\nMEFs were seeded at a density of 4×10^4 cells per well in a 24-wells plate. 24 hours post-plating the cells were incubated with the tested compounds for additional 6 hours followed by staining with 200 nM Tetra-Methyl-Rhodamine-Ethyl esterperchlorate (TMRE) (Abcam) for 30 minutes at 37° C. Cells were removed by trypsinyzation, washed and resuspended in PBS. 5-10×10^3 cells were analyzed by Stratedigm S1000EXi cell sorter and FlowJo software (FLOWJO, LLC, Ashland, Oreg., USA)."}, "Mut MEFs [4]": {"tested_on": "Mut MEFs", "assay": "Oxygen consumption (Seahorse XF Cell Mito Stress Test), MEFs", "assay_type": "cell-based, mouse", "settings": "for basal and ATP-linked respiration rate per mitochondrial DNA content: 6 hours (FIGS. 8A-B)", "procedure": "Mut MEFs were treated or not for 6 hours with the indicated concentrations of the indicated Sig-1R binders. Oxygen consumption was measured in a XF96 Extracellular Flux Analyzer using the Seahorse XF Cell Mito Stress Test Kit. The Basal respiration (FIG. 7A) and ATP-linked respiration (FIG. 7B) data were normalized to biomass as determined by Crystal Violet staining.\nMut MEFs were treated or not for 6 hours with the indicated concentrations of the indicated Sig-1R binders. Oxygen consumption was measured in a XF96 Extracellular Flux Analyzer using the Seahorse XF Cell Mito Stress Test Kit. The Basal respiration (FIG. 8A), ATP-linked respiration (FIG. 8B) and maximal respiration (FIG. 8C) data was normalized to mtDNA content as detailed in FIG. 2.\n(§1) The data were normalized to cell number, obtained by Crystal Violet staining, or to mtDNA content."}, "Mut primary astrocytes [5]": {"tested_on": "Mut primary astrocytes", "assay": "Oxygen consumption (OCR), primary astrocytes", "assay_type": "cell-based, mouse", "settings": "1 or 10 μm, 6 hours, normalized to cell number (FIGS. 17B-C)", "procedure": "(§2) Shown is average relative quantity (RQ) of 2-6 independent experiments normalized to their untreated controls ±SEM. […] Values of ATP-linked respiration (FIG. 17B) and maximal respiration (FIG. 17C) were analyzed and normalized to cell number.\nas §1"}, "Mut primary astrocytes [6]": {"tested_on": "Mut primary astrocytes", "assay": "mtDNA quantification, primary astrocytes", "assay_type": "cell-based, mouse", "settings": "1 or 10 μm, 6 hours (FIG. 17A)", "procedure": "as §2"}, "Mut MEFs [7]": {"tested_on": "Mut MEFs", "assay": "Survival under Tunicamycin-induced ER stress, Crystal Violet, MEFs", "settings": "20 μM, 24 hours, Tunicamycin during the last 22 hours (FIGS. 9, 10 and 18)", "quoted_text": "Mut MEFs were treated or not for 24 hours with the indicated concentrations of the indicated Sig-1R binders in the presence of 0.1 μg/ml Tunicamycin (Tun) during the last 22 hours. Following, the cells were washed, fixated and stained with Crystal Violet (CV) followed by measurement of absorbance at 570 nm. Shown is average % of CV staining relative to cells not treated with tunicamycin nor Sig-1R binder ±SEM of 3 independent experiments. *p<0.03.\nFollowing, the cells were washed, fixated and stained with Crystal Violet and absorbance at 570 nm was measured. Data is presented relative to cells of the corresponding genotype not treated with p8G5 nor Tunicamycin. Shown is average % of CV staining ±SEM of 3 independent experiments.\nMut MEFs were treated or not for 24 hours with 10, 20 or 30 μM of the indicated Sig-1R binders in the presence of 50 ng/ml Tunicamycin (Tun) during the last 22 hours. Following, the cells were washed, fixated and stained with Crystal Violet (CV) followed by measurement of absorbance at 570 nm. Shown is % of CV staining relative to cells not treated with tunicamycin nor Sig-1R binder ±SEM of 3 independent experiments, *p<0.05.\nMut MEFs were incubated or not with the indicated concentrations of the indicated compounds for 2 hours followed by addition of 50 ng/ml Tunicamycin (Tun) for additional 22 hours, stained with Crystal Violet followed by measurement of absorbance at 570 nm. Shown is average normalized to Tun-treated cells without any compound ±SEM of 3 independent experiments. * not significant; ** p<0.02; *** all values p<0.04."}}, "data": [{"smiles": "Cc1cccc(OCCCCCN2CCOCC2)c1", "note": "[H8 (p8G5), 4-[5-(3-methylphenoxy)pentyl]morpholine]", "values": [{"measurement": "Survival (%) ± SEM Mut astrocytes", "setting": "Mut astrocytes; 1 μM", "result": "108 ± 0.6", "unit": "%"}, {"measurement": "Survival (%) ± SEM Mut astrocytes", "setting": "Mut astrocytes; 10 μM", "result": "93 ± 2.1", "unit": "%"}, {"measurement": "Survival (%) ± SEM Mut astrocytes", "setting": "Mut astrocytes; 30 μM", "result": "92 ± 1.6", "unit": "%"}, {"measurement": "red/green JC1 signal (mitochondria with high to low membrane potential)", "setting": "Mut MEFs [1]; 1 μM and 10 μM, 6 hours (FIG. 6)", "result": "increased the ratio between the content of mitochondria with high to low membrane potential"}, {"measurement": "effect on mitochondrial health (JC1, intact and damaged mitochondria)", "setting": "Mut MEFs [1]; 10 μM, 24 hours (FIG. 14C)", "result": "significant beneficial effect on mitochondrial health"}, {"measurement": "inhibition at 10 µM", "setting": "Sig-1R", "result": 92, "unit": "%"}, {"measurement": "mitochondrial content in Mut MEFs", "setting": "Mut MEFs [2]", "result": "lowered the abnormal high mitochondrial content"}, {"measurement": "TMRE staining (mitochondrial membrane potential)", "setting": "Mut MEFs [3]", "result": "increased TMRE staining to a level above that of untreated WT cells"}, {"measurement": "maximal respiration rate per mitochondrial content", "setting": "Mut MEFs [4]; 1 μM, 6 hours (FIG. 8C)", "result": "increased the maximal respiration capacity per mitochondria to the level of untreated WT cells"}, {"measurement": "basal and ATP-linked respiration rate per mitochondrial DNA content", "setting": "Mut MEFs [4]; 1 μM", "result": "brought both parameters to WT levels"}, {"measurement": "basal and ATP-linked respiration rate per mitochondrial DNA content", "setting": "Mut MEFs [4]", "result": "statistically significant increase"}, {"measurement": "basal respiration and ATP-linked respiration per cell (OCR)", "setting": "Mut MEFs [4]; 6 hours, normalized to biomass (FIGS. 7A-B)", "result": "no effect"}, {"measurement": "ATP-linked and maximal respiration in mutant astrocytes", "setting": "Mut primary astrocytes [5]", "result": "increased both ATP-linked and maximal respiration"}, {"measurement": "mitochondrial content per cell in astrocytes", "setting": "Mut primary astrocytes [6]", "result": "no effect on mitochondrial content per cell"}, {"measurement": "survival of Mut MEFs under Tunicamycin ER-stress", "setting": "Mut MEFs [7]", "result": "attenuated the apoptotic effect"}]}]}
